PubChem BioAssay (NCI)
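Step 1: Grow cells in 96-well plates. Step 2: Expose to compound for 48 hours at 5 concentrations. Step 3: Interpolate endpoints linearly; if unreached, use highest concentration. TGI marks complete inhibition of growth.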

Columns and labels:
Experiment in all cases: inhibition of tumour cell growth, NCI panel, 48 h
[1] = system: TK-10 renal
[2] = system: SK-OV-3 ovarian
[3] = system: M14 melanoma
[4] = system: HCT-116 colon
[5] = system: SK-MEL-2 melanoma
[6] = system: 786-0 renal
[7] = system: SF-295 CNS
[8] = system: NCI-H226 lung
[9] = system: OVCAR-4 ovarian
[10] = system: MALME-3M melanoma
[11] = system: OVCAR-5 ovarian
[12] = system: MDA-MB-435
[13] = system: EKVX NSCLC
[14] = system: SR leukemia
[15] = system: HT29 colon
[16] = system: HOP-62 NSCLC
[17] = system: MDA-N
[18] = system: UO-31 renal
[19] = system: A549 NSCLC
[20] = system: NCI/ADR-RES ovarian
[21] = system: HCC-2998 colon
[22] = system: IGROV1 ovarian
[23] = system: CCRF-CEM leukemia
[24] = system: T-47D breast
[25] = system: RPMI-8226 leukemia
[26] = system: HCT-15 colon
[27] = system: SK-MEL-28 melanoma
[28] = system: OVCAR-8 ovarian
[29] = system: SNB-75 CNS
[30] = system: SW-620 colon
[31] = system: ACHN renal
[32] = system: UACC-257 melanoma
[33] = system: SK-MEL-5 melanoma
[34] = system: NCI-H23 lung
[35] = system: MCF7 breast
[36] = system: SN12C renal
[37] = system: A498 renal
[38] = system: U251 CNS
[39] = system: K-562 leukemia
[40] = system: BT-549 breast
[41] = system: NCI-H522 lung
[42] = system: HOP-92 NSCLC
[43] = system: CAKI-1 renal
[44] = system: UACC-62 melanoma
[45] = system: PC-3 prostate
[46] = system: COLO 205 colon
[47] = system: SF-539 CNS
[48] = system: MOLT-4 leukemia
[49] = system: LOX IMVI melanoma
[50] = system: KM12 colon
[51] = system: OVCAR-3 ovarian
[52] = system: HL-60(TB) leukemia
[53] = system: SNB-19 CNS
[54] = system: MDA-MB-231 breast
[55] = system: SF-268 CNS
[56] = system: RXF 393 renal
[57] = system: DU-145 prostate
[58] = system: NCI-H460 lung

## CN(C)c1nncc2n[nH]nc12
[1]
  TGI: > 100 µM
[2]
  TGI: > 100 µM
[3]
  TGI: > 100 µM
[4]
  TGI: > 100 µM
[5]
  TGI: > 100 µM
[6]
  TGI: > 100 µM
[7]
  TGI: > 100 µM
[8]
  TGI: > 100 µM
[9]
  TGI: > 100 µM
[10]
  TGI: > 100 µM
[11]
  TGI: > 100 µM
[12]
  TGI: > 100 µM
[13]
  TGI: > 100 µM
[14]
  TGI: > 100 µM
[15]
  TGI: > 100 µM
[16]
  TGI: > 100 µM
[17]
  TGI: > 100 µM
[18]
  TGI: > 100 µM
[19]
  TGI: > 100 µM
[20]
  TGI: > 100 µM
[21]
  TGI: > 100 µM
[22]
  TGI: > 100 µM
[23]
  TGI: > 100 µM
[24]
  TGI: > 100 µM
[25]
  TGI: > 100 µM
[26]
  TGI: > 100 µM
[27]
  TGI: > 100 µM
[28]
  TGI: > 100 µM
[29]
  TGI: > 100 µM
[30]
  TGI: > 100 µM
[31]
  TGI: > 100 µM
[32]
  TGI: > 100 µM
[33]
  TGI: > 100 µM
[34]
  TGI: > 100 µM
[35]
  TGI: > 100 µM
[36]
  TGI: > 100 µM
[37]
  TGI: > 100 µM
[38]
  TGI: > 100 µM
[39]
  TGI: > 100 µM
[40]
  TGI: > 100 µM
[41]
  TGI: > 100 µM
[42]
  TGI: > 100 µM
[43]
  TGI: > 100 µM
[44]
  TGI: > 100 µM
[45]
  TGI: > 100 µM
[46]
  TGI: > 100 µM
[47]
  TGI: > 100 µM
[48]
  TGI: > 100 µM
[49]
  TGI: > 100 µM
[50]
  TGI: > 100 µM
[51]
  TGI: > 100 µM
[52]
  TGI: > 100 µM

## CCOC(=O)c1cc(Br)c(-c2cc(C)no2)[nH]1
[1]
  TGI: > 100 µM
[2]
  TGI: > 100 µM
[3]
  TGI: > 100 µM
[4]
  TGI: > 100 µM
[5]
  TGI: > 100 µM
[6]
  TGI: > 100 µM
[7]
  TGI: > 100 µM
[8]
  TGI: > 100 µM
[9]
  TGI: 63 µM
[10]
  TGI: 61.3 µM
[11]
  TGI: > 100 µM
[53]
  TGI: > 100 µM
[12]
  TGI: 38.8 µM
[13]
  TGI: > 100 µM
[15]
  TGI: > 100 µM
[54]
  TGI: > 100 µM
[17]
  TGI: > 100 µM
[18]
  TGI: > 100 µM
[19]
  TGI: > 100 µM
[20]
  TGI: > 100 µM
[24]
  TGI: > 100 µM
[25]
  TGI: > 100 µM
[26]
  TGI: > 100 µM
[27]
  TGI: > 100 µM
[28]
  TGI: > 100 µM
[29]
  TGI: > 100 µM
[30]
  TGI: > 100 µM
[31]
  TGI: > 100 µM
[55]
  TGI: > 100 µM
[32]
  TGI: > 100 µM
[33]
  TGI: 47.5 µM
[34]
  TGI: > 100 µM
[36]
  TGI: > 100 µM
[37]
  TGI: 75.6 µM
[38]
  TGI: > 100 µM
[56]
  TGI: > 100 µM
[40]
  TGI: > 100 µM
[41]
  TGI: 78.9 µM
[57]
  TGI: 73.8 µM
[42]
  TGI: > 100 µM
[58]
  TGI: 55 µM
[44]
  TGI: > 100 µM
[45]
  TGI: > 100 µM
[46]
  TGI: 34.8 µM
[47]
  TGI: > 100 µM
[48]
  TGI: > 100 µM
[49]
  TGI: > 100 µM
[50]
  TGI: 24.7 µM
[51]
  TGI: 95.1 µM
[52]
  TGI: 83.6 µM
